# Patent US12691101B2, “Compound and method for preventing or treating of respiratory diseases comprising the same as an active ingredient” (YONSEI UNIVERSITY, UNIVERSITY - INDUSTRY FOUNDATION (UIF), priority 2019, dated 2026)
# Tests used:
# [1] = molecular target: T1, SLC26A6 (Homo sapiens, UniProt Q9BXS9); assay: Cl^−/HCO3^− exchange in CHO-K1 cells expressing SLC26A6; assay type: cell-based; conditions: weakly inhibited
# T1 construct: expressed in transfected cells; host or cells: CHO-K1
# Method: (A) The inhibition of mouse pendrin (mPDS)-mediated Cl^−/I^− exchange activity by F56 was measured in CHO-K1 cells (mean±S.E., n=5). The indicated concentration of F56 was pretreated for 10 minutes. (B) Summary of dose-response for inhibition of the human pendrin (hPDS)-mediated (closed circle, FIG. (a), C) and mPDS-mediated (open circle) Cl^−/I^− exchange activity. (C-F) Representative traces of intracellular pH in CHO-K1 cells expressing SLC26A3, SLC26A6, SLC26A7 and SLC26A9 were shown. The application of Cl^− free solution induced intracellular alkalization by Cl^−/HCO3^− exchange. The indicated concentration of F56 was pretreated for 10 minutes. (G) the effect of F56 (100 μM) on the CFTR chloride channel activity was measured in FRT cells expressing human CFTR. The CFTR current was activated by 20 μM forskolin and was inhibited by 10 μM CFTRinh-172. (H) The effect of F56 (100 μM) on the AN01 chloride channel activity was measured in FRT cells expressing human AN01. Before 10 minutes prior to AN01 activation by 100 μM ATP, F56 was added. (Right) Peak current summary (mean±S.E., n=3). (I) The effect of F56 on the hERG (Kv11.1) potassium channel activity was measured in HEK293T cells expressing human Kv11.1 (mean±S.E., n=4). […] (J) The effect of F56 on the 5-HT2A channel activity was measured in FRT cells expressing human 5-HT2A (mean±S.E., n=4). […]
# [2] = test system: Duox1 and Duox2 mRNA; assay: Real-time PCR of Duox1 and Duox2 mRNA in IL-4-treated HNE cells; assay type: cell-based, human
# Method: (§1) The total messenger RNA (mRNA) was extracted using TRIzol reagent (Invitrogen, Carlsbad, CA, USA), and was reverse-transcribed using a random hexamer primer, an oligo(dT) primer and SuperScript® III reverse transcriptase (Invitrogen). Quantitative real-time PCR was performed using StepOnePlus Real-Time PCR system (Applied Biosystems, Foster City, CA, USA) and Thunderbird SYBR qPCR mix (Tokyobo, Osaka, Japan). Thermal cycling conditions included the initial stage at 95° C. for 5 minutes, and subsequent 40 cycles at 95° C. for 10 seconds, at 55° C. for 20 seconds and at 72° C. for […].
# [3] = test system: HNE cells; assay: IL-4 and IL-13-induced goblet cell hyperplasia in HNE cells, PAS staining; assay type: cell-based, human; conditions: pretreatment
# Method: (A) The MUC5AC mRNA expression level was determined at the indicated time after treatment of F56 ([…]) in IL-4 (10 ng/ml)-treated HNE cells (mean±S.E., n=4). (B) Periodic acid-Schiff (PAS) staining showing goblet cell hyperplasia of IL-4 and IL-13 (10 ng/ml)-treated HNE cells in presence or absence of F56 ([…]) at Day 7. (C) Measurement of the total volume of ASL and fluid meniscus in HNE cells expressing wild-type (wt) or mutant (mt) PDS. The HNE cells were treated with IL-4 (10 ng/ml, 48 hours) in presence or absence of […]. (D) Representative image of a transwell insert having normal HNE cells. Arrows indicate the fluid meniscus of HNE cells treated with IL-4 (10 ng/ml, 48 hours) in presence or absence of […] F56. (E) Representative protein expression result of pendrin in IL-4 and IL-13-treated HNE cells. (F) Measurement of the total volume of ASL and fluid meniscus. The HNE cells were treated with IL-13 (10 ng/ml, 48 hours) in presence or absence of 30 mM F56 (mean±S.E., n=3-4). * P<0.05, *** P<0.001. Size bar, 30 μm.
# For evaluation of airway inflammation, left lung was fixed in 4% paraformaldehyde overnight and embedded in paraffin. […] The inflammation score showing the severity of bronchial inflammation was evaluated by 3 blind observers using a method reported conventionally. […]
# [4] = test system: HNE cells; assay: ASL and fluid meniscus volume measurement in HNE cells; assay type: cell-based, human
# Method: The total volume of ASL and fluid meniscus, which is fluid with the cell culture insert wall, was measured by fluid absorption through filter paper. Whatman filter paper (10 mm diameter circle; GE Healthcare) was placed on the apical size of a 12-well transwell insert (Costar Co.) for 10 seconds. The absorption of the ASL and fluid meniscus was measured from the weight change of the filter paper. The weight of the filter paper was measured using an analysis scale (Sartorius BP61S; Sartorius AG, Gottingen, Germany).
# [5] = Auditory brainstem response (ABR) hearing threshold in mice; assay type: in vivo, mouse; conditions: 10 mg/kg/day for 1 week
# Method: The negative effect of F56 was examined by i.p administering of F56 10 mg/kg to female balb/c mice every 24 hours for 7 days. In 24 hours after the last administration, the hearing of mice was measured and serum was obtained. According to the manufacturer's protocol, the total serum level of triiodothyronine (T3) or thyroxine (T4) using a mouse ELISA kit (Calbiotech, T3043T-100 or T4044T-100).
# The hearing level was measured in each mouse by measuring ABR threshold using an auditory-evoking potential workstation and BioSig software (Tucker-Davis Technologies, Alachua, FL, USA). The output from the speaker was calibrated using PCB 377C10 microphone (PCB Piezotronics, Inc. New York, NY, USA) and found to be within ±4 dB over the tested frequency range. After anesthetizing the mice, each ear was stimulated with an ear probe sealed inside the ear canal. The body temperature of the mice was maintained at 38° C. with an isothermal heating water-pad. The intensity of the click sound decreased from 70 dB SPL to 10 dB SPL with a 5-dB decrease. The mean value of ABR was calculated and the auditory threshold was defined as the lowest ABR response until wave I of ABR was no longer visually discernible.
# [6] = test system: pendrin mRNA; assay: Pendrin mRNA expression in LPS-treated hAEC, real-time PCR; assay type: cell-based, human
# Method: as §1
# T1 sequence (Q9BXS9 whole entry, species assumed): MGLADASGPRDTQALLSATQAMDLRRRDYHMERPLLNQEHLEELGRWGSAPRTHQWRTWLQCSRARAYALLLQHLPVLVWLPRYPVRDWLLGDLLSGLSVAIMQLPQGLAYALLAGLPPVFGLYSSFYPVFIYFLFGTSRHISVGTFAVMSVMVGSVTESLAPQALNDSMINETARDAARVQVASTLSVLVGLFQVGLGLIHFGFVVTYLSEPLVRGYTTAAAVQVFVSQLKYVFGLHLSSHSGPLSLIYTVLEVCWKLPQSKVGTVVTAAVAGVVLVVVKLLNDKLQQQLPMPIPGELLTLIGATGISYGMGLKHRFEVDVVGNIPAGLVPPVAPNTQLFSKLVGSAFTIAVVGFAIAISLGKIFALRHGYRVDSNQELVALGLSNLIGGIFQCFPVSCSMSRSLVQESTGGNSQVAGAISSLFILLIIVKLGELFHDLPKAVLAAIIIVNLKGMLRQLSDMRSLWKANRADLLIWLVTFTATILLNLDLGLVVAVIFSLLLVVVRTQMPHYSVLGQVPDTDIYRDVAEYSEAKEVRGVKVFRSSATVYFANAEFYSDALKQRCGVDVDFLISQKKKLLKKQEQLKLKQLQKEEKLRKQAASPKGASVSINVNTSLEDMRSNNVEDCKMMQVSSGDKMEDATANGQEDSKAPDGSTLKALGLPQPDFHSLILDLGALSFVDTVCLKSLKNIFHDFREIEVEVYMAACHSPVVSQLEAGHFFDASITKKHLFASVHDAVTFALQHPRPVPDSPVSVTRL
structure (smiles),measurement,setting,value
"CC(C)(C)c1ccc(C2=NC(=Cc3cccs3)C(=O)O2)cc1 [F56, 2-(4-(tert-butyl)phenyl)-4-(thiophen-2-ylmethylene)oxazol-5(4H)-one]",IC50,[1],> 100 µM
same,mRNA expression of Duox1 or Duox2,[2],did not affect
same,IL-4 and IL-13-induced goblet cell hyperplasia,[3],significantly reduced
same,total volume of ASL and fluid meniscus,[4]; IL-4-treated HNE cells expressing a mutant pendrin,not changed
same,total volume of ASL and fluid meniscus,[4]; IL-4 and IL-13-treated HNE cells expressing wild-type pendrin,hardly reduced
same,hearing threshold,[5],not changed
same,mRNA expression level of pendrin,[6],did not change
